{"source": "patent US9267129B2", "about": "“Compositions and methods for conferring herbicide resistance” (BEN-GURION UNIVERSITY OF THE NEGEV RESEARCH AND DEVELOPMENT …, priority 2011, dated 2016)", "key": {"[1]": {"target": "T1, PiAHAS wild-type (Parietochloris incisa (Lobosphaera incisa), UniProt I3VJH2, D350G/R415C)", "T1 sequence (I3VJH2 1-707 D350G/R415C)": "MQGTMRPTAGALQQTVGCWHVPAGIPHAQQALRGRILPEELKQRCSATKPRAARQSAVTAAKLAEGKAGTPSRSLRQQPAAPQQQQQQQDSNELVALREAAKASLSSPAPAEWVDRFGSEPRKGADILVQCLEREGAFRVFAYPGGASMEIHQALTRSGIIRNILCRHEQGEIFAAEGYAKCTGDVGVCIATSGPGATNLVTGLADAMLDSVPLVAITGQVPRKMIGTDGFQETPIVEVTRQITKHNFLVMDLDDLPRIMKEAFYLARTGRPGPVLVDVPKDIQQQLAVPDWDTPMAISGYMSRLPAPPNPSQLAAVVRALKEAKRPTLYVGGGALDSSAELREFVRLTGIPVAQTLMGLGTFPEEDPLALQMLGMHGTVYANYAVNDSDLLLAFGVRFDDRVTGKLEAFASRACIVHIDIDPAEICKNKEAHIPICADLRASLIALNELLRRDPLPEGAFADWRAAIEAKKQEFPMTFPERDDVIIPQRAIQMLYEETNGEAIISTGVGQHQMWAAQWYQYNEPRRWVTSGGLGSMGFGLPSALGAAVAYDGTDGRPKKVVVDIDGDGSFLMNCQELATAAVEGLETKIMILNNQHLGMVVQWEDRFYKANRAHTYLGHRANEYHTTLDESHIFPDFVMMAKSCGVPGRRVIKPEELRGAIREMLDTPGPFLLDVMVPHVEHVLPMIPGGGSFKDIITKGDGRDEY", "assay": "PiAHAS in vitro enzyme assay, inhibition by SMM (wild type)", "format": "biochemical", "conditions": "wild type; very low concentration of SMM", "description": "(§1) To overexpress the hexahistidine (6xHis)-tagged PiAHAS genes in E. coli strain JM109, plasmids pQE-WT and pQE-MUT were used. These plasmids were constructed by inserting the BamHI-SalI fragment containing the cloned PiAHAS wt and mutant genes into plasmid pQE30 (Qiagen, Hilden, Germany). These plasmids express PiAHAS fused at its N-terminus to the pQE30 6xHis leader. pQE-WT and pQE-MUT were transformed into E. coli for expression. […] The AHAS catalytic activity was determined as previously described (Bar-Ilan A et al. Binding and activation of thiamin diphosphate in acetohydroxyacid synthase. Biochemistry (N.Y.) 2001, 40, 11946-11954). […] Km for pyruvate and Ki for SMM were determined by varying the concentration of the factor in question. Protein concentration was determined by the dye-binding method of Bradford (Bradford MM. A rapid and sensitive method for the quantitation of microgram quantities of protein utilizing the principle of protein-dye binding. Anal. Biochem. 1976, 72, 248-254), with bovine serum albumin as standard. […]\n(§2) The Ki was determined to be >30×106, 7 orders of magnitude higher than that of the wild type."}, "[2]": {"target": "T2, PiAHAS wild-type (Parietochloris incisa (Lobosphaera incisa), UniProt I3VJH2)", "T2 sequence (I3VJH2 1-707 D350G/R415C)": "T1 sequence (I3VJH2 1-707 D350G/R415C)", "assay": "PiAHAS in vitro enzyme assay, inhibition by SMM (wild type)", "format": "biochemical", "conditions": "wild-type AHAS; pyruvate 100 mM; 37° C., pH 7.6", "description": "as §1, §2"}}, "data": [{"molecule": "COC(=O)c1ccccc1S(=O)(=O)NC(=O)Nc1nc(C)cc(C)n1", "note": "[SMM, sulfometuron methyl]", "values": [{"measurement": "inhibition of enzyme by SMM", "setting": "[1]", "result": "strongly inhibited"}, {"measurement": "Ki", "setting": "[2]", "result": 150, "unit": "nM"}]}]}
